# Reference: publication PMC8513058, “Synthesis and Evaluation of Novel 1,2,6-Thiadiazinone Kinase Inhibitors as Potent Inhibitors of Solid Tumors” (Molecules, 2021)
# Tests used:
# [1] = system: 5637 cells; experiment: Cancer cell line viability screen (alamarBlue), 5637; settings: 72 h, read-out: IC50 5637
# Protocol: (§1) This included pancreatic, bladder, prostate, breast, chordoma, and lung cancer cell lines while a skin fibroblast cell line was used as a toxicity control [33, 34, 35, 36].
# (§2) DU145 and MCF-7 cells were cultured in MEM medium supplemented with 10% FBS and 1% penicillin/streptomycin. […] Cells were seeded in 384-well plates and were treated with test compound in quadruplicate 24 h after plating. Cell viability was assessed at 72 h using alamarBlue (ThermoFisher, Waltham, MA, USA). […] IC50 values were determined by nonlinear regression using GraphPad PrismTM software (GraphPad Software Inc., San Diego, CA, US).
# [2] = system: MCF-7 cells; experiment: Cancer cell line viability screen (alamarBlue), MCF7; settings: Homo sapiens, MCF7, 72 h, read-out: IC50 MCF7
# Protocol: as §1, §2
# [3] = system: U-CH1 cells; experiment: Cancer cell line viability screen (alamarBlue), UCH1; settings: UCH1, 72 h, read-out: IC50 UCH1
# Protocol: as §1
# (§3) Cells were seeded in 384-well plates and were treated with test compound in quadruplicate 24 h after plating. Cell viability was assessed at 72 h using alamarBlue (ThermoFisher, Waltham, MA, USA). […] IC50 values were determined by nonlinear regression using GraphPad PrismTM software (GraphPad Software Inc., San Diego, CA, US).
# [4] = system: U-CH2 cells; experiment: Cancer cell line viability screen (alamarBlue), UCH2; settings: UCH2, 72 h, read-out: IC50 UCH2
# Protocol: as §1, §3
# [5] = system: A-431 cells; experiment: Cancer cell line viability screen (alamarBlue), A431; settings: Homo sapiens, A-431, 72 h, read-out: IC50 A431
# Protocol: as §1, §3
# [6] = system: DU145 cells; experiment: Cancer cell line viability screen (alamarBlue), DU145; settings: Homo sapiens, DU-145, 72 h, read-out: IC50 DU145
# Protocol: as §1, §2
# [7] = system: PANC-1 cells; experiment: Cancer cell line viability screen (alamarBlue), PANC1; settings: Homo sapiens, PANC-1, 72 h, read-out: IC50 PANC1
# Protocol: as §1, §2
# [8] = system: WS-1 cell line; experiment: Toxicity control viability screen (alamarBlue), WS-1 skin fibroblasts; settings: for IC50: WS1, 72 h, read-out: IC50 WS-1
# Protocol: as §1, §2
SMILES,melting point [°C],IC50 [1] [µM],IC50 [2] [µM],IC50 [3] [µM],IC50 [4] [µM],IC50 [5] [µM],IC50 [6] [µM],IC50 [7] [µM],IC50 [8] [µM],"IC50 WS-1 ([8]; skin fibroblast cell line, toxicity control, viability at 72 h, alamarBlue, average of 4 independent experiments)"
"CC(=O)c1cccc(Nc2nsnc(-c3ccnc4[nH]ccc34)c2=O)c1 [Compound 14, 3-[(3-Acetylphenyl)amino]-5-(1H-pyrrolo[2,3-b]pyridin-4-yl)-4H-1,2,6-thiadiazin-4-one]",271 to 273,15,> 100,58,> 100,> 100,> 100,> 100,92,
"COc1cccc(Nc2nsnc(-c3ccnc4[nH]ccc34)c2=O)c1 [Compound 15, 3-[(3-Methoxyphenyl)amino]-5-(1H-pyrrolo[2,3-b]pyridin-4-yl)-4H-1,2,6-thiadiazin-4-one]",257 to 258,15,> 100,67,> 100,> 100,> 100,> 100,> 100,
"Cc1ccc(O)cc1Nc1nsnc(-c2ccnc3[nH]ccc23)c1=O [Compound 18, 3-[(5-Hydroxy-2-methylphenyl)amino]-5-(1H-pyrrolo[2,3-b]pyridin-4-yl)-4H-1,2,6-thiadiazin-4-one]",304 to 305,55,> 100,> 100,> 100,> 100,> 100,> 100,> 100,
"O=c1c(-c2ccnc3[nH]ccc23)nsnc1N1CCOCC1 [Compound 19, 3-Morpholino-5-(1H-pyrrolo[2,3-b]pyridin-4-yl)-4H-1,2,6-thiadiazin-4-one]",256 to 257,> 100,46,> 100,> 100,> 100,14,11,> 100,
"CN1CCN(c2nsnc(-c3ccnc4[nH]ccc34)c2=O)CC1 [Compound 20, 3-(4-Methylpiperazin-1-yl)-5-(1H-pyrrolo[2,3-b]pyridin-4-yl)-4H-1,2,6-thiadiazin-4-one]",195 to 196,> 100,> 100,,,,> 100,> 100,,

# The next lines start with results.
melting point [°C],IC50 [1] [µM],IC50 [2] [µM],IC50 [3] [µM],IC50 [4] [µM],IC50 [5] [µM],IC50 [6] [µM],IC50 [7] [µM],SMILES,IC50 [8] [µM],"IC50 WS-1 ([8]; skin fibroblast cell line, toxicity control, viability at 72 h, alamarBlue, average of 4 independent experiments)"
286 to 287,> 100,> 100,97,> 100,> 100,51,> 100,"CN1CCN(c2nsnc(Nc3ccnc4[nH]ccc34)c2=O)CC1 [Compound 21, 5-(4-Methylpiperazin-1-yl)-3-[(1H-pyrrolo[2,3-b]pyridin-4-yl)amino]-4H-1,2,6-thiadiazin-4-one]",> 100,
262 to 263,> 100,25,> 100,> 100,> 100,50,> 100,"CN1CCN(c2nsnc(Nc3ccc4[nH]ncc4c3)c2=O)CC1 [Compound 22, 3-[(1H-Indazol-5-yl)amino]-5-(4-methylpiperazin-1-yl)-4H-1,2,6-thiadiazin-4-one]",24,
282 to 283,> 100,92,71,> 100,> 100,84,> 100,"O=c1c(Nc2ccc3[nH]ncc3c2)nsnc1-c1cccc(O)c1 [Compound 23, 5-(3-Hydroxyphenyl)-3-[(1H-indazol-5-yl)amino]-4H-1,2,6-thiadiazin-4-one]",> 100,
268 to 269,> 100,13,67,> 100,> 100,15,26,"Cc1ccc(O)cc1-c1nsnc(Nc2ccc3[nH]ncc3c2)c1=O [Compound 24, 5-(5-Hydroxy-2-methylphenyl)-3-[(1H-indazol-5-yl)amino]-4H-1,2,6-thiadiazin-4-one]",> 100,no toxicity
220 to 221,13,38,52,99,> 100,> 100,> 100,"COc1cccc(-c2nsnc(Nc3ccc4[nH]ncc4c3)c2=O)c1 [Compound 25, 3-[(1H-Indazol-5-yl)amino]-5-(3-methoxyphenyl)-4H-1,2,6-thiadiazin-4-one]",71,
